Source: US20150073033A1, “BIOMARKERS FOR CANCER CHARACTERIZATION AND TREATMENT” (Board of Regents, The University of Texas System, priority 2011, published 2015)
“Also recorded” adds a separate entry of the source. Like-named read-outs stand apart in the source and are kept apart here. Each block holds one compound with its values, some of them ahead of it.

Assays:
[1] = tested on: PKM2; assay: EGF-induced nuclear translocation of PKM2 (cell fractionation, immunoblotting, immunofluorescence); assay type: cell-based, human
Description: Immunoblotting analyses (b, b) were performed with the indicated antibodies. Nuclear PCNA and cytoplasmic tubulin were used as controls. a: The indicated cells were immunostained with an anti-PKM2 antibody.
Immunoblotting and immunoprecipitation analyses were performed with the indicated antibodies. a: Nuclear fractions were prepared from U87/EGFR cells pretreated with LY290042 (30 μM), SU6656 (4 μM), SP600125 (25 μM), and U0126 (20 μM) for 30 min before EGF (100 ng/mL) for 6 h. Nuclear PCNA and cytoplasmic tubulin were used as controls. b: U87/EGFR cells were pretreated with or without U0126 (20 μM) for 30 min before EGF (100 ng/mL) for 6 h. Immunofluorescence analyses were performed with the indicated antibodies. Nuclei were stained with Hoechst 33342 (blue). c: U251 cells were stably transfected with a vector with or without expressing FLAG-ERK2 K52R (left panel) or transiently transfected with vectors expressing MEK1 Q56P and indicated FLAG-tagged ERK2 proteins (right panel). The cells were treated with or without EGF (100 ng/mL) for 6 h, and the total cell lysates and nuclear fractions were prepared. d: FLAG-PKM2 or FLAG-PKM1 was immunoprecipitated with an anti-FLAG antibody from U87/EGFR cells treated with or without EGF (100 ng/mL) for 30 min. e: Bacterially-purified GST-ERK2 immobilized on glutathione agarose beads was mixed with or without purified His-PKM2. GST pull-down analyses were performed. Ten percent of total His-PKM2 was used as an input. f: U87/EGFR cells transfected with vectors expressing the indicated FLAG-tagged ERK proteins were treated with or without EGF (100 ng/mL) for 30 min. g: U87/EGFR cells expressing the indicated FLAG-PKM2 proteins were treated with or without EGF (100 ng/mL) for 30 min.
(§1) Immunofluorescence analyses of endogenous PKM2 or transiently expressed FLAG-PKM1 were performed with the indicated antibodies. […] Immunoblotting analyses were performed with the indicated antibodies. Nuclear PCNA was used as controls for immunoblotting analyses. c: An equal volume of cytosolic and nuclear fractions were prepared from U87/EGFR cells treated with or without EGF (100 ng/mL) for 6 h. Ten microliters of protein from cytosolic and nuclear fractions were used for immunoblotting analyses with the indicated antibodies. d: Nuclear fractions were prepared from U251 cells pretreated with LY290042 (30 μM), SU6656 (4 μM), SP600125 (25 μM), and U0126 (20 μM) for 30 min before EGF (100 ng/mL) for 6 h. Immunoblotting analyses were performed with the indicated antibodies. Nuclear PCNA and cytoplasmic tubulin were used as controls. e: U87/EGFR cells were pretreated with LY290042 (30 μM), SU6656 (4 μM), SP600125 (25 μM), and U0126 (20 μM) for 30 min before EGF (100 ng/mL) for 6 h. Immunoblotting analyses were performed with the indicated antibodies.
Cytosolic and nuclear fractions were prepared. Immunoblotting analyses were performed with the indicated antibodies. b: U87/EGFR cells with depleted endogenous PKM2 and reconstituted expression of RNAi-resistant WT rPKM2 or rPKM2 S37A were treated with or without EGF (100 ng/mL) for 6 h. Total cell lysates (left panel) and nuclear fractions (right panel) were prepared.

[2] = tested on: AKT; assay: EGF-induced AKT phosphorylation, immunoblotting; assay type: cell-based, human; details: U87/EGFR cells; LY290042 30 μM or AKT inhibitor 10 μM 30 min before EGF
Description: Immunofluorescence analyses of endogenous PKM2 or transiently expressed FLAG-PKM1 were performed with the indicated antibodies. […] Immunoblotting analyses were performed with the indicated antibodies. […] Immunoblotting analyses were performed with the indicated antibodies. […] Immunoblotting analyses were performed with the indicated antibodies.
(§2) FIG. 63: PKC, NF-κB, PI3-K, and CK2 are inhibited by their inhibitors. A, B: U87/EGFR cells were treated with Bis-I (2 μM) (A) or Go6976 (2 μM) (B) for 30 min before 12-O-tetradecanoylphorbol-13-acetate (TPA) ([…]) for 8 h. Immunoblotting analyses were performed with the indicated antibodies. C: U87/EGFR cells transiently expressing a luciferase reporter vector containing the IκBα promoter were pretreated with or without NF-κB activation inhibitor II (7 μM) for 30 min before TNFα (10 ng/mL) for 8 h. The relative levels of luciferase activity were normalized to the levels of untreated cells and to the levels of luciferase activity of the Renilla control plasmid. Data represent the mean±standard deviation of three independent experiments. […] Immunoblotting analyses were performed with the indicated antibodies.

[3] = tested on: ERK1/2; assay: EGF-induced ERK1/2 phosphorylation, immunoblotting; assay type: cell-based, human; details: U87/EGFR cells; AG1478 1 μM or U0126 20 μM 30 min before EGF 6 h
Description: as §1
(§3) Extraction of proteins with a modified buffer from cultured cells was followed by immunoprecipitation and immunoblotting with corresponding antibodies, as described previously (Lu et al., 1998).

[4] = tested on: PKM2 S37; details: U87/EGFR cells; U0126 20 μM 30 min before EGF 100 ng/mL 30 min
Description: FIG. 43: ERK2 phosphorylates PKM2 S37. […] Immunofluorescence analyses were performed with an anti-FLAG antibody (f). Nuclei were stained with Hoechst 33342 (blue).
as §3

[5] = tested on: PIN1-PKM2 binding; details: U0126 20 μM 30 min before EGF 30 min
Description: Immunoprecipitation and immunoblotting analyses were performed with the indicated antibodies. a: His-PIN1 immobilized on nickel agarose beads was incubated with lysate of U87/EGFR cells treated with or without U0126 (20 μM) for 30 min before EGF (100 ng/mL) stimulation for 30 min. b: U87/EGFR cells transiently expressing WT FLAG-PKM2 or FLAG-PKM2 S37A were treated with or without EGF (100 ng/mL) for 30 min. […] Data represent the mean±SD of three independent experiments. g: PIN1^−/− cells were reconstituted to express the indicated PIN1 proteins (left panel). The total cell lysates and nuclear fractions were prepared from the indicated cells treated with or without EGF (100 ng/mL) for 6 h (right panel). h: Total cell lysates and nuclear fractions of PIN1^−/− cells or PIN^−/− cells expressing FLAG-PKM2 S37D were prepared.
as §3

[6] = tested on: PKM2; details: U87 cells; U0126 20 μM 30 min before PDGF-AA 50 ng/mL 6 h
Description: (§4) Nuclear PCNA. Immunoblotting analyses were performed with the indicated antibodies. b: U87 cells were cultured in no-serum DMEM and treated with or without U0126 (20 μM) for 30 min before PDGF-AA (50 ng/mL) for 20 h. The media were collected for analysis of glucose consumption (left panel) or lactate production (right panel). Data represent the mean±SD of three independent experiments.

[7] = tested on: U87 cells; details: no-serum DMEM, U0126 20 μM 30 min before PDGF-AA 50 ng/mL 20 h
Description: as §4
Cells were seeded in culture dishes, and the medium was changed after 6 h with no-serum DMEM. Cells were incubated for 12-16 h, and the culture medium was then collected for measurement of glucose and lactate concentrations. Glucose levels were determined using a glucose (GO) assay kit (Sigma). Glucose consumption was the difference in glucose concentration compared with DMEM. Lactate levels were determined using a lactate assay kit (Eton Bioscience, San Diego, Calif.).

[8] = tested on: PKM2 expression; assay: EGF-induced PKM2 upregulation, immunoblotting; assay type: cell-based, human; details: U87/EGFR cells; pretreatment before EGF 100 ng/mL 12 h; AG1478 1 μM, cycloheximide 200 μg/mL, Bis-I 2 μM, Go6976 2 μM, NF-κB activation inhibitor II 7 μM, AKT inhibitor 10 μM, TBB 50 μM, U73122 2 μM
Description: FIG. 56: EGFR activation results in upregulation of PKM2 expression. A-D: Immunoblotting analyses were performed with or without the indicated antibodies. A: The indicated cell lines were treated with EGF (100 ng/mL) for 12 h. B: U87 cells were stably transfected with plasmids expressing EGFR or EGFRvIII. […] D: U87/EGFR cells were pretreated with or without cycloheximide (CHX) (200 μg/mL) for 30 min before EGF (100 ng/mL) treatment for 12 h. […] The relative mRNA levels of PKM2 and PKM1 were normalized to the levels of untreated cells and β-actin mRNA. Data represent the mean±SD of three independent experiments.
FIG. 57: EGF increases PKM2 expression in a PKC- and NF-κB-dependent manner. A-D, H: Immunoblotting analyses were performed with the indicated antibodies. […] ChIP assay was performed with an anti-RelA antibody for immunoprecipitation, followed by PCR with PKM promoter-specific primers. F: An oligonucleotide containing the putative WT or mutated NF-κB binding sequence was labeled using [γ-^32P] ATP and T4 polynucleotide kinase. […] Samples were subjected to 5% polyacrylamide gel electrophoresis, and the dried gel was exposed to x-ray film. […] The relative levels of luciferase activity were normalized to the levels of untreated cells and to the levels of luciferase activity of the Renilla control plasmid. Data represent the mean±standard deviation of three independent experiments.
FIG. 58: PKCε downstream from PLCγ1, rather than TAK1, activates IKKβ and subsequently increases PKM2 expression. […] B: U87/EGFR cells were treated with TNFα (10 ng/mL) for the indicated time. C: U87/EGFR cells were treated with or without EGF (100 ng/mL) or TNFα (10 ng/mL) for 4 h. […] HIF1α was immunodepleted from the cell lysates by incubation with an anti-HIF1α antibody, which was followed by a ChIP assay with an anti-FLAG antibody for immunoprecipitation of FLAG-RelA and PCR analysis with PKM promoter-specific primers. […] F: 293T cells were transiently transfected with constitutively active (+) or kinase-dead (−) PKC mutants. […] H, I: 293T cells were transiently transfected with the indicated plasmids.

[9] = target: T1, PKCε (Homo sapiens, UniProt Q02156); assay: TPA-induced, PKC kinase activity-dependent degradation of PKCε; assay type: cell-based; details: U87/EGFR cells; Bis-I 2 μM 30 min before TPA 8 h
T1 construct: endogenous in cells; host or cells: U87/EGFR
T1 sequence (Q02156 1-737): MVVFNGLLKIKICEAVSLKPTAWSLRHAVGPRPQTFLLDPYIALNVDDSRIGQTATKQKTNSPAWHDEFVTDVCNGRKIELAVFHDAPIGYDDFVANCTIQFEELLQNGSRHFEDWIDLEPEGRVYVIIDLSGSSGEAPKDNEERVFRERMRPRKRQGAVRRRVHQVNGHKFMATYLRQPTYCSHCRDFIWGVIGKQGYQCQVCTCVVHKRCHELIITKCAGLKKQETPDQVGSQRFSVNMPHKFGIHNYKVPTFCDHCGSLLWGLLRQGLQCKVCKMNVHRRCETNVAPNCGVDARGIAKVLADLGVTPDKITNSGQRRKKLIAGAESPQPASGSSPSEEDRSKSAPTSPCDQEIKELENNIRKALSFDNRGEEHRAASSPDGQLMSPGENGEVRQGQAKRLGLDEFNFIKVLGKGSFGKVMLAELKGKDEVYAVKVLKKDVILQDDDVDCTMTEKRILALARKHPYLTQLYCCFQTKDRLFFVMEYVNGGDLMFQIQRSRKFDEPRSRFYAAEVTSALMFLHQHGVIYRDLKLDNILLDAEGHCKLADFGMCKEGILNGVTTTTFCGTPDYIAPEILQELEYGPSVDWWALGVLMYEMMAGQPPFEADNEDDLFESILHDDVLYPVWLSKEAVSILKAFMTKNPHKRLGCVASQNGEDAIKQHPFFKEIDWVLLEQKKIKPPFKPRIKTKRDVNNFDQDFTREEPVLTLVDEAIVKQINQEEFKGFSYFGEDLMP
Description: as §2

[10] = target: T2, PKCα (Homo sapiens, UniProt P17252); assay: TPA-induced, PKC kinase activity-dependent degradation of PKCα; assay type: cell-based; details: U87/EGFR cells; Go6976 2 μM 30 min before TPA 8 h
T2 construct: endogenous in cells; host or cells: U87/EGFR
Description: as §2

Compound: O=c1cc(N2CCOCC2)oc2c(-c3ccccc3)cccc12 [LY290042]
EGF-induced nuclear accumulation/translocation of PKM2 ([1]; U87/EGFR (and U251) cells, 30 min pretreatment before EGF 100 ng/mL, LY290042 30 μM, SU6656 4 μM, SP600125 25 μM, U0126 20 μM, AG1478 1 μM, cycloheximide 100 μg/mL): only inhibition of MEK/ERK abrogated
EGF-induced phosphorylation of AKT [2]: blocked

Compound: N#CC(=C(/N)Sc1ccccc1N)/C(C#N)=C(\N)Sc1ccccc1N [U0126]
EGF-induced nuclear accumulation/translocation of PKM2 [1]: abrogated; also recorded: blocked
EGF-induced phosphorylation of ERK1/2 [3]: blocked
EGF-induced PKM2 S37 phosphorylation [4]: blocked
EGF-increased binding of endogenous PIN1 to endogenous PKM2 (co-immunoprecipitation) ([5]; U87/EGFR cells): blocked
EGF-induced binding of endogenous PKM2 to His-PIN1 ([5]; lysate of U87/EGFR cells): abrogated
PDGF-induced nuclear translocation of PKM2 [6]: blocked
PDGF-induced glucose uptake [7]: blocked
PDGF-induced lactate production [7]: blocked

TPA-induced and PKC kinase activity-dependent degradation of PKCε [9]: successfully blocked
Compound: CN(C)CCCn1cc(C2=C(c3c[nH]c4ccccc34)C(=O)NC2=O)c2ccccc21 [Bis-I]
EGF-induced PKM2 upregulation/expression [8]: largely abrogated; also recorded: blocked

TPA-induced and PKC kinase activity-dependent degradation of PKCα [10]: successfully blocked
Compound: Cn1c2ccccc2c2c3c(c4c5ccccc5n(CCC#N)c4c21)CNC3=O [Go6976]
